Results published in patent US20230172940A1, “METHODS OF EXTENDING LIFESPAN BY ADMINISTERING FERROPTOSIS INHIBITORS” (COLLABORATIVE MEDICINAL DEVELOPMENT, LLC, priority 2020, published 2023).

What was measured:
C. elegans = settings: iron chelators, literature reports; cited from earlier work
RSL3 = assay: IC50 (RSL3), Table 1; type: cell-based
OP50 E. coli = assay: Bacterial growth assay (OD600); type: cell-based, Escherichia coli; settings: 50 or 100 μg/mL; after 12 hours, 37° C
Description: The effects of test compounds on growth of the OP50 E. coli feed was assayed using optical density at 600 nm (OD600). Using standard microtitre plates, replicate wells of 200 μL of sterile Luria broth were inoculated with 2 μL of an overnight OP50 culture in addition to the stated final concentrations of ampicillin (Amp), Lip-1 and SIH. OD600 measures were taken after 12 hours in an EnSpire (PerkinElmer) spectrophotometric plate reader preset to 37° C., with 30 sec of 200 rpm orbital shaking every 10 minutes.
Data was averaged across duplicate experiments, each with eight replicate wells per treatment where a baseline of Luria broth without an inoculate was subtracted.

C. elegans strain TJ1060 = assay: Lifespan determination; type: in vivo, Caenorhabditis elegans; settings: alternative ferroptosis inhibitor
Description: Lifespan was measured using established protocols. SIH was dissolved in neat dimethyl sulfoxide (DMSO; Sigma-Aldrich) then added to the molten NGM at 55° C. (to a final concentration of 250 μM SIH in 0.5% v/v DMSO). Lip-1 was dissolved in neat DMSO then added to the molten NGM at 55° C. (to a final concentration of 200 μM Lip-1 in 0.5% v/v DMSO). Media containing equivalent vehicle alone (0.5% v/v DMSO) was used for comparison. Standard overnight culture of the Escherichia coli (E. coli) strain OP50 was used as the food source.
Lifespan data was collected at 25 (±1) ° C. using the temperature sensitive-sterile strain TJ1060 [spe-9(hc88); fer-15(b26)]. A synchronous population was obtained by transferring egg-laying adults to fresh plates at 16° C. for 2-3 hours. The adults were removed and the plates with eggs then transferred to 25° C. to ensure sterility. After 48 hours at 25° C., when worms were at the late L4/young adult stage, 25-35 nematodes were transferred to fresh plates containing either vehicle control, 250 μM SIH, or 200 μM Lip-1. All plates were coded to allowing blinding of the experimenter to the treatment regime during scoring. Nematodes were scored for survival at one to three-day intervals and transferred to freshly prepared plates as needed (2-5 days).
It is well documented that differences are observed between independent measures of lifespan, with micro-environmental factors such as minor temperature fluctuations potentially resulting differences in median and maximum lifespan between replicates. After determining the optimal doses of 250 μM SIH and 200 μM Lip-1, respectively, cohorts of nematodes were compared in 8 independent replicates. As the number of worms measured is known to influence the likelihood of accurately observing differences in lifespan, the starting populations for all treatments within experiments were in excess of 70 individuals.

IC50 (RSL3) | Structure (SMILES) | also measured
 | O=C(O)CN(CCN(CC(=O)O)CC(=O)O)CC(=O)O.[Ca] [CaEDTA, calcium-ethylenediaminetetraacetic acid] | effect on C. elegans lifespan as reported (C. elegans): minor (undisclosed) increase in lifespan
3 nM | CC1(Nc2nc(-c3ccc(F)cc3)ccc2NC2CCC2)CCOC1 (stereo not drawn) [Compound P-54, N^3-cyclobutyl-6-(4-fluorophenyl)-N^2-(3-methyltetrahydrofuran-3-yl)pyridine-2,3-diamine] | 
> 3000 nM | CC1=Nc2cc(C#N)ccc2NC1(C)C [Compound Q-912, 2,2,3-trimethyl-1H-quinoxaline-6-carbonitrile] | 
> 3000 nM | CCCCC(=O)c1cc2c(c(-c3ccncc3)c1)NCCC2 [Compound Q-950, 1-[8-(4-pyridyI)-1,2,3,4-tetrahydroquinolin-6-yl]pentan-1-one] | 
40 nM | CCCCC(O)c1cc2c(c(NC(C)(C)C)n1)NCC(C(F)(F)F)C2 (stereo not drawn) [Compound R-812, 1-[8-(tert-butylamino)-3-(trifluoromethyl)-1,2,3,4-tetrahydro-1,7-naphthyridin-6-yl]pentan-1-ol] | 
 | CC1(C)S[C@@H]2[C@H](NC(=O)[C@H](N)c3ccccc3)C(=O)N2[C@H]1C(=O)O [ampicillin] | growth of OP50 E. coli (OD600) (OP50 E. coli): completely suppressed bacterial growth
 | Cc1c(O)c(=O)ccn1C [deferiprone] | effect on C. elegans lifespan as reported (C. elegans): not to impact C. elegans lifespan
 | CCOC(=O)c1ccc(NC2CCCCC2)c(N)c1 [ferrostatin] | median lifespan extension (C. elegans strain TJ1060): significant but more modest median lifespan extension

Structure (SMILES) | IC50 (RSL3) | also measured
CCCCC(=O)c1cc2c(c(OC3CCCC3)c1)NCCC2 [Compound Q-980, 1-[8-(cyclopentoxy)-1,2,3,4-tetrahydroquinolin-6-yl]pentan-1-one] | > 3000 nM | 
